From article PMC3012785 (Journal of neurochemistry, 2010)
Ends that are not written are not given here.

Conditions: rat, in vivo

Question: Which Half-life does the source give for RHAYRSMAEWGFLYS [PGD3-4] here?
Answer: 2.45 h
